The record followed here is article PMC7600006, “Dissecting the Cytochrome P450 OleP Substrate Specificity: Evidence for a Preferential Substrate” (Biomolecules, 2020).

The target of test [1] is T1, cytochrome P450 OleP (Streptomyces antibioticus, UniProt Q59819).
T1 construct: wild type enzyme
T1 sequence (Q59819 1-407): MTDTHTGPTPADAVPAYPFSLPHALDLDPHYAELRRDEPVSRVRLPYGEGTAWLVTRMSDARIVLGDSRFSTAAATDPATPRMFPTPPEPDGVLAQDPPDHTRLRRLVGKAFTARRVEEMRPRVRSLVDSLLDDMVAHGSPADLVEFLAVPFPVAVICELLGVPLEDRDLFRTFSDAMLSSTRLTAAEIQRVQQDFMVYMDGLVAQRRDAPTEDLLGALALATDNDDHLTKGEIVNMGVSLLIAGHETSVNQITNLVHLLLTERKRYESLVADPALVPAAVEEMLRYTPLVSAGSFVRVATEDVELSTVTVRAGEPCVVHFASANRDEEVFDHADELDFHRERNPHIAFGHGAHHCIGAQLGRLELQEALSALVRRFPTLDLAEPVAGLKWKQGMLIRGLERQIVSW
Kind of test: UV-visible equilibrium titration (Type I Soret shift); crystal structure of the ternary complex with L-rhamnose ([…] Å). In kind it is binding.

Test [2] addresses T1, cytochrome P450 OleP. Kind of test: UV-visible equilibrium titration (Type I Soret shift); crystal structures 6ZHZ, 6ZI2 and 6ZI7. It counts as binding.

Turning to `CC[C@H]1OC(=O)[C@H](C)[C@@H](O)[C@H](C)[C@@H](O)[C@@H](C)C[C@@H](C)C(=O)[C@H](C)[C@@H](O)[C@H]1C` [6DEB, 6-deoxyerythronolide B], on cytochrome P450 OleP [1], the equilibrium dissociation constant (Kd) amounted to 3.2 ± 0.1 µM.
As for `C[C@@H]1[C@@H](O)[C@@H](C)C[C@H](C)C(=O)[C@H](C)[C@@H](O)[C@@H](C)[C@@H](C)OC(=O)[C@H](C)[C@H]1O` [DEO, 8.8a-deoxyoleandolide], at cytochrome P450 OleP [2], the Kd turned out to be 23 ± 2 µM.

Usually Kd stands for the constant that tells how readily two partners part at equilibrium.
